Data taken from publication PMC10406627 (The Journal of Biological Chemistry, 2023).

Target: T1, N4CMT79–324 (Adineta vaga, UniProt A0AAB0B2A1)
T1 sequence (A0AAB0B2A1 2-247): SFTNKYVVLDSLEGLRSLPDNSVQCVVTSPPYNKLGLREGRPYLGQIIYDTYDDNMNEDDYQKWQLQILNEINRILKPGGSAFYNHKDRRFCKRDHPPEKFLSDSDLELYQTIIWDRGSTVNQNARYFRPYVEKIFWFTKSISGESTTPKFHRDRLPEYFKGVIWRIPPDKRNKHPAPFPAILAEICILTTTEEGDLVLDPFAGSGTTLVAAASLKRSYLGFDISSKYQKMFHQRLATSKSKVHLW
Assay: X-ray crystal structure, […] A, space group C222_[…]
Conditions: SAM-binding site; 600 uM sinefungin preincubated, no DNA

Nc1ncnc2c1ncn2[C@@H]1O[C@H](C[C@@H](N)CC[C@H](N)C(=O)O)[C@@H](O)[C@H]1O [sinefungin]
X-ray crystal structure, 1.49 A, space group C222_1: sinefungin binds in the SAM-binding site, and its adenosyl moiety is solvent-exposed on the surface
